Key:
[1] = species on record: Homo sapiens; assay: Selectivity index, ratio of IC50 for human MAO-A to IC50 for human MAO-B
[2] = target: T1, Amine oxidase [flavin-containing] A (Homo sapiens, UniProt P21397); assay: Inhibition of human MAO-A using p-tyramine as substrate incubated for 15 mins by Amplex red and horseradish peroxidase based fluorescence assay
T1 sequence (P21397 whole entry): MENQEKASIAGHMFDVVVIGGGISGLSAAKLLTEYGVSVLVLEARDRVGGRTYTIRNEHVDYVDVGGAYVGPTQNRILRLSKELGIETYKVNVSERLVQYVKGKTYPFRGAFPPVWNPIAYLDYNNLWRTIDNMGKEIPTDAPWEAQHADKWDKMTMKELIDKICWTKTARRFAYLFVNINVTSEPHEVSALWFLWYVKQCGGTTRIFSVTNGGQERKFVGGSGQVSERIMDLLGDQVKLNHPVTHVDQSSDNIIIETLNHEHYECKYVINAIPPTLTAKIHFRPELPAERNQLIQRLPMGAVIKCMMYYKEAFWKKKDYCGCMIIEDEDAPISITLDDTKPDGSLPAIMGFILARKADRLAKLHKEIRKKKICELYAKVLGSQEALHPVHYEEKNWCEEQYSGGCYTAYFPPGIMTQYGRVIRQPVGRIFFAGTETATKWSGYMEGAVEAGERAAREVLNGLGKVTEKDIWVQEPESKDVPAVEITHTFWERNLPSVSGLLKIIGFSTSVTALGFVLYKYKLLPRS

[3] = target: T2, Amine oxidase [flavin-containing] B (Homo sapiens, UniProt P27338); assay: Inhibition of human MAO-B using p-tyramine as substrate at 10 uM incubated for 15 mins by Amplex red and horseradish peroxidase based fluorescence assay; details: 0.25 h
T2 sequence (P27338 whole entry): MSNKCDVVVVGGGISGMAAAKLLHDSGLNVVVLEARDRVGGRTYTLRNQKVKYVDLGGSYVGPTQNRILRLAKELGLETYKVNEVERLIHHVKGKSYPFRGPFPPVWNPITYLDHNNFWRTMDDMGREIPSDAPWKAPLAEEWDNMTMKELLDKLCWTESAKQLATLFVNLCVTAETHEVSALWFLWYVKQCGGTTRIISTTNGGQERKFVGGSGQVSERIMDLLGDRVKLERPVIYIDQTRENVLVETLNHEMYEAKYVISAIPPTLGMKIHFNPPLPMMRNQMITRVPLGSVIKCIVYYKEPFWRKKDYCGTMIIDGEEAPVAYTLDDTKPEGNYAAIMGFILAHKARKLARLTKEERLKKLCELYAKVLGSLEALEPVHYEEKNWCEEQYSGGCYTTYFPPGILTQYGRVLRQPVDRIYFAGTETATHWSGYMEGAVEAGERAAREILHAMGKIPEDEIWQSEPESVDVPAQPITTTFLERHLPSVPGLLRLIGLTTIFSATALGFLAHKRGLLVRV

[4] = target: T2, Amine oxidase [flavin-containing] B; assay: Inhibition of human MAO-B using p-tyramine as substrate incubated for 15 mins by Amplex red and horseradish peroxidase based fluorescence assay
[5] = target: T1, Amine oxidase [flavin-containing] A; assay: Inhibition of human MAO-A using p-tyramine as substrate at 10 uM incubated for 15 mins by Amplex red and horseradish peroxidase based fluorescence assay; details: 0.25 h
[6] = target: T3, MAO-A (amine oxidase [flavin-containing] A) (Homo sapiens, UniProt P21397); assay: Inhibition of human MAO-A using p-tyramine as substrate incubated for 15 mins by Amplex red and horseradish peroxidase based fluorescence assay relative to control; details: human MAO-A enzyme, probe p-tyramine
T3 sequence (P21397 whole entry): T1 sequence (P21397 whole entry)

[7] = Cytotoxicity against human SH-SY5Y cells assessed as cell viability by measuring lysosomal activity upto 10 uM incubated for 24 hrs by neutral red uptake assay relative to control; assay type: toxicity, cell-based; details: read-out: Activity
[8] = Cytotoxicity against human SH-SY5Y cells assessed as cell viability by measuring metabolic activity upto 10 uM incubated for 24 hrs by resazurin dye based assay relative to control; assay type: toxicity; details: read-out: Activity
[9] = system: SH-SY5Y; assay: Iron(III) chelating activity in FeNTA-treated human SH-SY5Y cells assessed as cell viability by measuring lysosomal activity at 1 to 10 uM measured after 24 hrs by neutral red uptake assay (reference value: 66.5 +/- […] %); assay type: cell-based; details: dose 1-10 µM
[10] = system: SH-SY5Y; assay: Iron(III) chelating activity in FeNTA-treated human SH-SY5Y cells assessed as cell viability by measuring lysosomal activity at 10 uM measured after 24 hrs by neutral red uptake assay (reference value: 66.5 +/- […] %); assay type: cell-based

Row | SMILES | Ratio IC50 [1] | IC50 [4] [nM] | inhibition (INH) [5] | further results
1 | COc1ccc2occ(C(=O)Nc3ccc(C)c(C)c3)c(=O)c2c1 | > 352 | 28.4 | Not Active | –
2 | C[C@H](NCc1ccc(OCc2cccc(F)c2)cc1)C(N)=O [SAFINAMIDE] | – | – | – | inhibition at 0.25 h [6]: 23.7%
3 | COc1ccc2occ(C(=O)Nc3ccccc3)c(=O)c2c1 | > 239 | – | Not Active | –
4 | COc1ccc2occ(C(=O)Nc3ccc(Cl)cc3)c(=O)c2c1 | > 970 | – | Not Active | viability at 24 h, up to 10 µM [7]: ≥ 94.4%; viability at 24 h, up to 10 µM [8]: ≥ 94.4%
5 | O=C(Nc1cccc(Cl)c1)c1coc2cccc(O)c2c1=O | > 400 | 25 | Not Active | viability at 24 h, up to 10 µM [7]: ≥ 94.4%; viability at 24 h, up to 10 µM [8]: ≥ 94.4%; Activity [9]: 74.4%
6 | Cc1ccc(NC(=O)c2coc3cccc(O)c3c2=O)cc1 | > 637 | 15.7 | Not Active | viability at 24 h, up to 10 µM [7]: ≥ 94.4%; viability at 24 h, up to 10 µM [8]: ≥ 94.4%; Activity [9]: 74.4%
7 | O=C(Nc1ccc(Cl)cc1)c1coc2cccc(O)c2c1=O | > 1200 | 8.3 | Not Active | viability at 24 h, up to 10 µM [7]: ≥ 94.4%; viability at 24 h, up to 10 µM [8]: ≥ 94.4%; Activity [9]: 74.4%
8 | COc1ccc2oc(C(=O)Nc3ccc(C)c(C)c3)cc(=O)c2c1 | – | – | Not Active | inhibition (INH) [3]: Not Active
9 | COc1ccc2oc(C(=O)Nc3ccccc3)cc(=O)c2c1 | – | – | Not Active | inhibition (INH) [3]: Not Active
10 | O=C(Nc1ccccc1)c1coc2ccc(O)cc2c1=O | > 42 | 240 | Not Active | –
11 | O=C(Nc1cccc(Cl)c1)c1coc2ccc(O)cc2c1=O | > 336 | 29.8 | Not Active | –
12 | COc1ccc2occ(C(=O)Nc3ccc(C)cc3)c(=O)c2c1 | > 48 | – | Not Active | –
13 | O=C(Nc1ccc(O)cc1)c1coc2cccc(O)c2c1=O | > 17 | 598 | Not Active | –
14 | Cc1ccc(NC(=O)c2coc3ccc(O)cc3c2=O)cc1 | > 29 | 344 | Not Active | –
15 | O=C(Nc1ccccc1)c1coc2cccc(O)c2c1=O | > 769 | 13 | Not Active | viability at 24 h, up to 10 µM [7]: ≥ 94.4%; Activity [10]: 74.4%; viability at 24 h, up to 10 µM [8]: ≥ 94.4%
16 | Cc1ccc(NC(=O)c2coc3cccc(O)c3c2=O)cc1C | > 649 | 15.4 | Not Active | viability at 24 h, up to 10 µM [7]: ≥ 94.4%; viability at 24 h, up to 10 µM [8]: ≥ 94.4%; Activity [9]: 74.4%
17 | COc1ccc2occ(C(=O)Nc3ccc(O)cc3)c(=O)c2c1 | > 15 | – | Not Active | –
18 | Cc1ccc(NC(=O)c2coc3ccc(O)cc3c2=O)cc1C | > 38 | 262 | Not Active | –
19 | COc1ccc2occ(C(=O)Nc3cccc(Cl)c3)c(=O)c2c1 | > 1470 | 6.8 | Not Active | viability at 24 h, up to 10 µM [7]: ≥ 94.4%; viability at 24 h, up to 10 µM [8]: ≥ 94.4%

Now from value to molecule, other results behind:

Row | Ratio IC50 [1] | IC50 [4] [nM] | inhibition (INH) [5] | SMILES | further results
20 | > 0.061 | – | – | COc1ccc2oc(C(=O)Nc3ccc(C)cc3)cc(=O)c2c1 | IC50 [2]: 607 nM; inhibition (INH) [3]: Not Active
21 | > 181 | 55.1 | Not Active | Cc1ccc(NC(=O)c2cc(=O)c3cc(O)ccc3o2)cc1 | –
22 | – | – | Not Active | COc1ccc2oc(C(=O)Nc3cccc(Cl)c3)cc(=O)c2c1 | inhibition (INH) [3]: Not Active
23 | – | – | Not Active | COc1ccc2oc(C(=O)Nc3ccc(O)cc3)cc(=O)c2c1 | inhibition (INH) [3]: Not Active
24 | 116 | 29.1 | – | Cc1ccc(NC(=O)c2cc(=O)c3cc(O)ccc3o2)cc1C | IC50 [2]: 3370 nM
25 | > 700 | 14.3 | Not Active | O=C(Nc1ccc(Cl)cc1)c1cc(=O)c2cc(O)ccc2o1 | viability at 24 h, up to 10 µM [7]: ≥ 94.4%; viability at 24 h, up to 10 µM [8]: ≥ 94.4%
26 | – | – | Not Active | COc1ccc2oc(C(=O)Nc3ccc(Cl)cc3)cc(=O)c2c1 | inhibition (INH) [3]: Not Active
27 | > 319 | 31.3 | Not Active | O=C(Nc1ccccc1)c1cc(=O)c2cc(O)ccc2o1 | –
28 | 130 | 68.9 | – | O=C(Nc1cccc(Cl)c1)c1cc(=O)c2cc(O)ccc2o1 | IC50 [2]: 9000 nM
29 | > 9.7 | 1030 | Not Active | O=C(Nc1ccc(O)cc1)c1cc(=O)c2cc(O)ccc2o1 | –
30 | 64 | 97.2 | – | O=C(Nc1ccc(Cl)cc1)c1coc2ccc(O)cc2c1=O | IC50 [2]: 6190 nM
31 | > 2.1 | 4830 | Not Active | O=C(Nc1ccc(O)cc1)c1coc2ccc(O)cc2c1=O | –

— ChEMBL document CHEMBL5352389, “Design and synthesis of chromone-based monoamine oxidase B inhibitors with improved drug-like properties” (Eur J Med Chem, 2022)
